Measurements as given in US20180320177A1, “COMPOSITIONS AND METHODS FOR THE TREATMENT OF LIVER FIBROSIS” (UNIVERSITY OF CONNECTICUT, priority 2015, published 2018).

Tests used:
[1] = system: CCl4-induced inflammation; assay: CCl4-induced inflammation in mouse liver; type: in vivo; conditions: CCl4-treated mice (FIG. 4C, 4D)
Description: Animal Care: All animal care and experimental procedures were approved by the Institutional Animal Care and Use Committee at the University of Connecticut. Shp^−/− mice were described previously. Hmgb2^−/− mice were obtained from Dr. Stella Tsirka at Stony Brook University. C57BL/6J mice were purchased from Jackson Laboratory. All mice were maintained on a 12-h light/dark cycle with free access to food and water unless otherwise indicated. For CCl4 treatment, CCl4 (Sigma) was dissolved in corn oil and administered to mice at a dose of 850 μl/kg BW by intraperitoneal injection (IP) twice a week for 6 or 10 weeks with or without ICM. Age-matched control mice were treated with a corn oil vehicle. For CCl4+ICM treatment, mice were treated with CCl4 for 2 weeks and then ICM (Department of Pharmaceutical Sciences at UConn) was dissolved in PEG (Sigma) and treated with mice (10 mg/kg) every day for 4 or 8 weeks in combination with CCl4. To induce overexpression of HMGB2 in liver, AAV8-Hmgb2 or a control AAV8-GFP was given to mice by tail vein injection at a dose of 5×10^10 GC. To knockdown HMGB2 in mouse livers, AAV-shHmgb2 or a control AAV-shGFP was delivered to mice at a dose of 2×10^10 GC by tail vein injection. One week later, mice injected with AAVs were treated with CCl4 or CCl4 +ICM as described above and sacrificed. […]

[2] = system: MMP and Rho signaling; assay: Western blot of MMP and Rho signaling in TIC cells; type: cell-based; conditions: TIC cells (FIG. 7E)
Description: Western Blotting: Total protein lysates were prepared from livers and cells in lysis buffer containing 50 mM Tris, pH 8.0, 1% Nonidet™ P-40, 150 mM NaCl, 0.5% sodium deoxycholate, 0.1% SDS with protease inhibitors (Thermo Fisher Scientific) and subjected to immunoblotting. Nuclear and cytoplasmic subcellular fractions were prepared using NE-PER nuclear and cytoplasmic extraction reagents (Pierce) according to the manufacturer's instructions. The blot was incubated with a primary antibody, followed by a secondary antibody conjugated to horseradish peroxidase. ECL kit (Pierce) was used to detect the reactivity. The following antibodies were obtained from Cell Signaling Technology: HMGB2, HMGB1, AKT, p-AKT, mTOR, p-mTOR, ERK1/2, pERK1/2, Raptor, Rictor, p53, p21, p-Bad, Smad4, p-Smad2/3, Lamin A/C, a-SMA, MMP2, MMP9, TIMP1, RhoA, Rho-GTP, Cdc42, Rac1/2/3. Anti-HA antibody and anti-beta actin antibody were purchased from Sigma and Santa Cruz Biotechnology, respectively.
Cell Lines The LX-2 human stellate cell line was maintained in Dulbecco's Modified Eagle's Medium (DMEM) supplemented with 2% fetal bovine serum (FBS), 100 IU/ml penicillin, and 100 μg/ml streptomycin. Human hepatocellular carcinoma (HCC) MHCC97H cells were maintained in DMEM supplemented with 10% FBS, 100 IU/ml penicillin, and 100 μg/ml streptomycin, 1 mM HEPES, 1 mM sodium pyruvate, 2 mM L-glutamine. Tumor-initiating (TIC) cells were obtained from Dr. Hidekazu Tsukamoto at University of Southern California and were maintained in 1:1 DMEM:F12 supplement with 100 U/ml penicillin and 100 μg/ml streptomycin, 2 mM glutamine, 20 ng/ml mouse EGF, 10 nM dexamethasone, 1× embryomax nucleotides. All the cells were maintained at 37° C. humidified atmosphere with 5% CO2. TIC cells were infected with Hmgb2 shRNA lentivirus for 48 hr, and treated with 500 ng/ml puromycin for 2 weeks. The stable cells were used for migration and invasion assay, as well as western blot.

Row | Compound | inflammatory response [1] | MMP signaling [2] | Rho signaling [2]
1 | shHMGB2: small hairpin RNA against HMGB2 (SEQ ID NO: 8), delivered by AAV or lentivirus (CCGGGCTCAACATTAGCTTCAGTATCTCGAGATACTGAAGCTAATGTTGAGCTTTTTG) | decrease inflammatory response | decreased | decreased
2 | CC1(C)Oc2cc(O)ccc2C2C1=CCn1c(=O)n(-c3ccccc3)c(=O)n12 (stereo not drawn) [ICM, inflachromene] | decrease inflammatory response | decreased | decreased
